In patent US8796256B2 (Janssen Pharmaceutica NV, priority 2010, dated 2014):

Target: T1, ERR1 (also known as ERR-α or ERR-1) (Homo sapiens, UniProt P11474)
T1 sequence (P11474 193-421 limits assumed): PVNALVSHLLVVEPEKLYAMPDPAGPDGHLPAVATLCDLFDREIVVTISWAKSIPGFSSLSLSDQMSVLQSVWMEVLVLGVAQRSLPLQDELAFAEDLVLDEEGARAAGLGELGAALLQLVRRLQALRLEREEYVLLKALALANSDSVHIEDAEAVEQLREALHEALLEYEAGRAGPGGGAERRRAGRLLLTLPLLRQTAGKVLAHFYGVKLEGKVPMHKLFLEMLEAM
Experiment: TR-FRET assay (disruption of co-activator peptide binding to ERR1 LBD)
Format: biochemical
Settings: 6 nM 6His-ERR1LBD, 6 nM GST-SRC-2 peptide; average of 3 independent experiments
Method in brief: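 Homogeneous TR-FRET measuring displacement of GST-hSRC2 co-activator peptide (6 nM) from His-tagged ERR1 LBD (6 nM), detected with α-GST Eu cryptate (30 nM) and α-His-XL665 (7.5 nM). Buffer 25 mM Tris pH 8, 2.5 mM Hepes, 20 mM KCl, 1 mM DTT, 0.05 mg/mL delipidated BSA; equilibration 4-18 h at 25° C. Hyperbolic dose-response fit, mean of 3 experiments.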

Row | EC50 | Compound
1 | 68 nM | N[C@H]1CCC[C@H](CN2C(=O)S/C(=C\c3ccc4c(cnn4Cc4ccc(Cl)cc4C(F)(F)F)c3)C2=O)C1 [Compound 105, (5Z)-3-{[(1S,3S)-3-Aminocyclohexyl]methyl}-5-({1-[4-chloro-2-(trifluoromethyl)benzyl]-1H-indazol-5-yl}methylidene)-1,3-thiazolidine-2,4-dione]
2 | 29 nM | O=C1S/C(=C\c2ccc3c(c2)nnn3Cc2ccc(Cl)cc2C(F)(F)F)C(=O)N1O [Compound 290, (5Z)-5-({1-[4-Chloro-2-(trifluoromethyl)benzyl]-1H-benzotriazol-5-yl}methylidene)-3-hydroxy-1,3-thiazolidine-2,4-dione]
3 | 25 nM | NCCN1C(=O)S/C(=C\c2ccc3c(cnn3Cc3ccc(Cl)cc3C(F)(F)F)c2)C1=O [Compound 49, 3-(2-Aminoethyl)-(5Z)-5-({1-[4-chloro-2-(trifluoromethyl)benzyl]-1H-indazol-5-yl}methylidene)-1,3-thiazolidine-2,4-dione]
4 | 55 nM | Cn1cnc(CC(C(=O)O)N2C(=O)S/C(=C\c3ccc4c(cnn4Cc4ccc(Cl)cc4C(F)(F)F)c3)C2=O)c1 (centres unmarked) [Compound 223, 2-[(5Z)-5-({1-[4-Chloro-2-(trifluoromethyl)benzyl]-1H-indazol-5-yl}methylidene)-2,4-dioxo-1,3-thiazolidin-3-yl]-3-(1-methyl-1H-imidazol-4-yl)propanoicacid]
5 | 100 nM | CN(C)CCCN1C(=O)S/C(=C\c2ccc3c(ccn3Cc3ccc(F)cc3C(F)(F)F)c2)C1=O [Compound 252, (5Z)-3-[3-(Dimethylamino)propyl]-5-[(1-{[4-fluoro-2-(trifluoromethyl)phenyl]methyl}-1H-indol-5-yl)methylidene]-1,3-thiazolidine-2,4-dione]
6 | 7 nM | O=C(NN1C(=O)S/C(=C\c2ccc3c(cnn3Cc3ccc(Cl)cc3C(F)(F)F)c2)C1=O)C1CC1 [Compound 373, N-[(5Z)-5-({1-[4-Chloro-2-(trifluoromethyl)benzyl]-1H-indazol-5-yl}methylidene)-2,4-dioxo-1,3-thiazolidin-3-yl]cyclopropanecarboxamide]
7 | 264 nM | N[C@@H](CN1C(=O)S/C(=C\c2ccc3c(cnn3Cc3ccc(Cl)cc3C(F)(F)F)c2)C1=O)C1CCCCC1 [Compound 107, (5Z)-3-[(2R)-2-Amino-2-cyclohexylethyl]-5-({1-[4-chloro-2-(trifluoromethyl)benzyl]-1H-indazol-5-yl}methylidene)-1,3-thiazolidine-2,4-dione]
8 | 39 nM | CNN1C(=O)S/C(=C\c2ccc3c(cnn3Cc3ccc(C(F)(F)F)cc3C(F)(F)F)c2)C1=O [Compound 357, (5Z)-5-({1-[2,4-Bis(trifluoromethyl)benzyl]-1H-indazol-5-yl}methylidene)-3-(methylamino)-1,3-thiazolidine-2,4-dione]
9 | 57 nM | O=C1S/C(=C\c2ccc3c(cnn3Cc3ccc(Cl)cc3C(F)(F)F)c2)C(=O)N1C1(C(=O)O)CCCC1 [Compound 233, 1-[(5Z)-5-({1-[4-Chloro-2-(trifluoromethyl)benzyl]-1H-indazol-5-yl}methylidene)-2,4-dioxo-1,3-thiazolidin-3-yl]cyclopentanecarboxylic acid]
10 | 152 nM | CC(C)N1CC[C@@H](N2C(=O)S/C(=C\c3ccc4c(cnn4Cc4ccc(Cl)cc4C(F)(F)F)c3)C2=O)[C@H](F)C1 (relative stereo) [Compound 328, (5Z)-5-({1-[4-Chloro-2-(trifluoromethyl)benzyl]-1H-indazol-5-yl}methylidene)-3-[trans-3-fluoro-1-(1-methylethyl)piperidin-4-yl]-1,3-thiazolidine-2,4-dione]
11 | 70 nM | O=C(O)CN1C(=O)S/C(=C\c2ccc3c(cnn3[C@H]3CCc4cc(Cl)ccc43)c2)C1=O [Compound 173, [(5Z)-5-({1-[(1S)-5-Chloro-2,3-dihydro-1H-inden-1-yl]-1H-indazol-5-yl}methylidene)-2,4-dioxo-1,3-thiazolidin-3-yl]acetic acid]
12 | 21 nM | CS(=O)(=O)NCCN1C(=O)S/C(=C\c2ccc3c(cnn3Cc3ccc(Cl)cc3C(F)(F)F)c2)C1=O [Compound 158, N-{2-[(5Z)-5-({1-[4-Chloro-2-(trifluoromethyl)benzyl]-1H-indazol-5-yl}methylidene)-2,4-dioxo-1,3-thiazolidin-3-yl]ethyl}methanesulfonamide]
13 | 71 nM | COc1ccc(Cn2ncc3cc(/C=C4\SC(=O)N(CCN5CCN(CCO)CC5)C4=O)ccc32)c(C(F)(F)F)c1 [Compound 16, (5Z)-3-{2-[4-(2-Hydroxyethyl)piperazin-1-yl]ethyl}-5-({1-[4-methoxy-2-(trifluoromethyl)benzyl]-1H-indazol-5-yl)methylidene)-1,3-thiazolidine-2,4-dione]
14 | 21 nM | O=C1S/C(=C\c2ccc3c(cnn3Cc3ccc(Cl)cc3C(F)(F)F)c2)C(=O)N1[C@@H]1CCN(CCO)C[C@H]1F (relative stereo) [Compound 327, (5Z)-5-({1-[4-Chloro-2-(trifluoromethyl)benzyl]-1H-indazol-5-yl}methylidene)-3-[trans-3-fluoro-1-(2-hydroxyethyl)piperidin-4-yl]-1,3-thiazolidine-2,4-dione]
15 | 4 nM | COc1ccc(Cn2ncc3cc(/C=C4\SC(=O)N(CCN(C)C)C4=O)ccc32)c(C(F)(F)F)c1 [Compound 9, (5Z)-3-[2-(Dimethylamino)ethyl]-5-[(1-{[4-(methyloxy)-2-(trifluoromethyl)phenyl]-methyl}-1H-indazol-5-yl)methylidene]-1,3-thiazolidine-2,4-dione]
16 | 210 nM | [2H]C([2H])([2H])N1CCC(F)(CN2C(=O)S/C(=C\c3ccc4c(cnn4Cc4ccc(Cl)cc4C(F)(F)F)c3)C2=O)CC1 [Compound 307, (5Z)-5-({1-[4-Chloro-2-(trifluoromethyl)benzyl]-1H-indazol-5-yl}methylidene)-3-{[4-fluoro-1-(^2H3)methylpiperidin-4-yl]methyl}-1,3-thiazolidine-2,4-dione]
17 | 314 nM | O=C(O)CN1C(=O)S/C(=C\c2ccc3c(cnn3Cc3ccc(F)cc3C(F)(F)F)c2)C1=O [Compound 122, [(5Z)-5-({1-[4-Fluoro-2-(trifluoromethyl)benzyl]-1H-indazol-5-yl}methylidene)-2,4-dioxo-1,3-thiazolidin-3-yl]acetic acid]
18 | 28 nM | O=C1S/C(=C\c2ccc3c(cnn3Cc3ccc(Cl)cc3C(F)(F)F)c2)C(=O)N1[C@@H]1CCNC[C@H]1F [Compound 381, (5Z)-5-({1-[4-Chloro-2-(trifluoromethyl)benzyl]-1H-indazol-5-yl}methylidene)-3-[(3R,4R)-3-fluoropiperidin-4-yl]-1,3-thiazolidine-2,4-dione]
19 | 410 nM | COCCN1C[C@H](F)C[C@H]1CN1C(=O)S/C(=C\c2ccc3c(cnn3Cc3ccc(Cl)cc3C(F)(F)F)c2)C1=O [Compound 190, (5Z)-5-({1-[4-Chloro-2-(trifluoromethyl)benzyl]-1H-indazol-5-yl}methylidene)-3-{[(2S,4R)-4-fluoro-1-(2-methoxyethyl)pyrrolidin-2-yl]methyl}-1,3-thiazolidine-2,4-dione]
20 | 23 nM | C[C@@H](CN1C(=O)S/C(=C\c2ccc3c(cnn3Cc3ccc(Cl)cc3C(F)(F)F)c2)C1=O)NS(C)(=O)=O [Compound 157, N-{(1S)-2-[(5Z)-5-({1-[4-Chloro-2-(trifluoromethyl)benzyl]-1H-indazol-5-yl}methylidene)-2,4-dioxo-1,3-thiazolidin-3-yl]-1-methylethyl} methanesulfonamide]
21 | 66 nM | O=C(O)c1cccc(CN2C(=O)S/C(=C\c3ccc4c(cnn4Cc4ccc(Cl)cc4C(F)(F)F)c3)C2=O)c1 [Compound 378, 3-{[(5Z)-5-({1-[4-Chloro-2-(trifluoromethyl)benzyl]-1H-indazol-5-yl}methylidene)-2,4-dioxo-1,3-thiazolidin-3-yl]methyl}benzoic acid]
22 | 620 nM | O=C1S/C(=C\c2ccc3c(cnn3Cc3ccc(C(F)(F)F)cc3C(F)(F)F)c2)C(=O)N1C1CCNCC1 [Compound 67, (5Z)-5-({1-[2,4-Bis(trifluoromethyl)benzyl]-1H-indazol-5-yl}methylidene)-3-piperidin-4-yl-1,3-thiazolidine-2,4-dione]
23 | 89 nM | Cc1nc(CN2C(=O)S/C(=C\c3ccc4c(cnn4Cc4ccc(Cl)cc4C(F)(F)F)c3)C2=O)n[nH]1 [Compound 86, (5Z)-5-({1-[4-Chloro-2-(trifluoromethyl)benzyl]-1H-indazol-5-yl}methylidene)-3-[(5-methyl-1H-1,2,4-triazol-3-yl)methyl]-1,3-thiazolidine-2,4-dione]
24 | 980 nM | O=C1S/C(=C\c2ccc3c(cnn3Cc3ccc(Cl)cc3C(F)(F)F)c2)C(=O)N1C[C@@H]1CSCCN1 [Compound 98, (5Z)-5-({1-[4-Chloro-2-(trifluoromethyl)benzyl]-1H-indazol-5-yl}methylidene)-3-[(3R)-thiomorpholin-3-ylmethyl]-1,3-thiazolidine-2,4-dione]
25 | 20 nM | CCN(CC)CCN1C(=O)S/C(=C\c2ccc3c(cnn3Cc3ccc(OC)cc3C(F)(F)F)c2)C1=O [Compound 18, (5Z)-3-[2-(Diethylamino)ethyl]-5-({1-[4-methoxy-2-(trifluoromethyl)benzyl]-1H-indazol-5-yl}methylidene)-1,3-thiazolidine-2,4-dione]
26 | 30 nM | COC(=O)C1(N2C(=O)S/C(=C\c3ccc4c(cnn4Cc4ccc(Cl)cc4C(F)(F)F)c3)C2=O)CCOCC1 [Compound 226, Methyl 4-[(5Z)-5-({1-[4-chloro-2-(trifluoromethyl)benzyl]-1H-indazol-5-yl}methylidene)-2,4-dioxo-1,3-thiazolidin-3-yl]tetrahydro-2H-pyran-4-carboxylate]
